Several values for one entry are separate records, joined by “and”; a condition that tells them apart may be missing. Identical values can stand only once.
How the values were obtained:
P2Y12R [1] = molecular target: P2Y12R (Homo sapiens, UniProt Q9H244); assay: cell-based; conditions: IC50, [33P]2-MeSADP competitor; triplicates, mean; footnote b values: three independent experiments, mean ± SD
Protocol: The cell cultures were maintained in an incubator at 37 °C under a humidified and 5% CO2-conditioned atmosphere. Cells were passaged at 80% confluency. For binding assays, cells were harvested with Trypsin-EDTA (5 mL, Gibco) and resuspended in medium. The suspension was centrifuged at 1000g for 5 min and the supernatant was discarded. The cells were adjusted to assay cell concentration (2 × 10^6 cells/mL) by the addition of D-PBS and stored at 37 °C up to 1 h prior to the binding assay.
The mixture was transferred to a 96-well filter plate (1.0 μm glass fiber filter, MultiScreenHTS FB Filter Plate, Merck Millipore, Billercia, MA) and filtered with a vacuum manifold (MultiScreenHTS Vacuum Manifold, Merck Millipore, Billercia, MA). The filters were washed by the addition of cold PBS buffer (4 × 200 μL) and dried at rt for 1 h. Afterward, a punch-tip plate was mounted and the filters were separated into scintillation vials (10 mL) containing scintillation cocktail (4 mL, Rotiszint eco plus LSC-Universalcocktail). […] Bound activity was plotted as a function of ligand concentration in GraphPad Prism 8.0 (GraphPad Software, version 8.4.3., San Diego, CA).

[2] = In vitro stability in PBS, radio-HPLC; conditions: PBS formulation, 37 °C
[3] = Log D 7.4 shake flask method, n-octanol/PBS; conditions: pH 7.4
Protocol: The distribution of [^18F]12 between n-octanol and PBS buffer was determined by the shake-flask method at rt. […] After 30 min, three samples (100 μL) were taken from each phase. […] Radioactivity for all samples was quantified by a γ-counter (counting time 1 min, counting window 450–570 keV, HIDEX AMG γ Counter version 1.6.0.0, Turku, Finland).

P2Y12R [4] = molecular target: T1, P2Y12R (Mus musculus, UniProt Q9CPV9); assay: Correlation of PET signal with immunohistochemistry; type: in vivo; parameters: from tissue; host or cells: brain of living WT, PLX-5622-treated and Trem2-/- mice; conditions: cortical SUV 25–60 min p.i.
T1 sequence (Q9CPV9 whole entry): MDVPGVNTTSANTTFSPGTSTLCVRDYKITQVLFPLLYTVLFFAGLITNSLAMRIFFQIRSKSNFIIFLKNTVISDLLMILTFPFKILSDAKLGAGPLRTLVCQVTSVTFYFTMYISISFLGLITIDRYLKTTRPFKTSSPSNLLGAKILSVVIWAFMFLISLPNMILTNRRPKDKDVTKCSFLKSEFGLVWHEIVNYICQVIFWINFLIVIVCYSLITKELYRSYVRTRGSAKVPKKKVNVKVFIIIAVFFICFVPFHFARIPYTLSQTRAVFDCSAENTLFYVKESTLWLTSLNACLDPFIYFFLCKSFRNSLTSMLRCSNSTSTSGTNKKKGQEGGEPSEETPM
Protocol: Ex vivo immunohistochemical evaluation of Iba1 and P2Y12R expression was performed for a subset of mice (4 WT, 4 PLX, 8 Trem2^–/–) to correlate P2Y12 PET signal with target expression. […] High levels of Iba1 and P2Y12R were also detectable in Trem2^–/– mice, but reflecting the results of the PET studies, P2Y12R levels were not elevated compared to WT mice. Cortical SUV levels, derived from PET imaging in the most significant time frame (25–60 min p.i.) (Figure S12D), were correlated with Iba1 or P2Y12R expression density. A strong association between Iba1 signal and tracer uptake (R = 0.6589, p = 0.0055, Figure B) and between the P2Y12R signal and tracer uptake (R = 0.754, p = 0.0007, Figure C) was observed. The P2Y12 signal was well associated with Iba1 (R = 0.6, p = 0.014, Figure D) indicating predominant microglial receptor visualization.
Paraformaldehyde-fixed 50 μm thick sagittal brain sections were incubated overnight at 4 °C in PBS with 5% normal goat serum and 0.5% Triton X-100 containing guinea pig monoclonal anti-Iba1 primary antibody (1:500, Synaptic Systems GmbH, Göttingen, Germany, 234308) and rat monoclonal anti-P2Y12R primary antibody (1:200, P2YM 17A12, this work). […] The images were processed using the LAS X Software (version 3.9.1.28433), and analysis was conducted with FiJi/ImageJ (version 1.54f) by quantifying Iba1 and P2Y12R signal over a predefined threshold. […]

[5] = In vitro stability in human blood/plasma, radio-HPLC; conditions: 37 °C
P2Y12R [6] = molecular target: T1, P2Y12R; assay: In vitro autoradiography on mouse brain sections; type: binding; parameters: from tissue; host or cells: brain of living WT, PLX-5622-treated and Trem2-/- mice
Protocol: In vitro ARG experiments on brain sections from all animal models were performed under baseline and blocking conditions. […] However, as already concluded from our PET data (Figure ), the high signal in PLX sections may reflect a substantial amount of nonspecific (NSB) or off-target binding.
WT, PLX and Trem2^–/– mouse brain sections were thawed to rt for 5 min and then preincubated with PBS buffer (pH = 7.4) for 10 min. Sections were then incubated with a maximum of 0.5 MBq/mL [^18F]12 tracer formulation at rt for 45 min in PBS buffer. […] Subsequently, sections were washed with 30% ethanol for 1 min, 70% ethanol for 2 min and PBS for 1 min, before leaving them to dry at rt for 60 min. Afterward, brain sections were exposed to a phosphor imaging plate at rt for 24 h and then scanned with a CR-Reader (CR35 BIO, DÜRR MEDICAL, Bietigheim-Bissingen, Germany). The images were analyzed using Aida Image Analyzer software (v.4.50.010, Elysia-raytest GmbH, Straubenhardt, Germany). Quantification was performed by placing a region of interest (ROI) in the CTX and the hypothalamus (HYP) as pseudo reference region. Results are either expressed as normalized intensity relative to maximal intensity after background subtraction or as CTX to HYP ratio.

[7] = Ex vivo biodistribution 60 min p.i.; type: in vivo, mouse; conditions: WT mice
P2Y12R [8] = molecular target: T1, P2Y12R; assay: Dynamic in vivo PET imaging in WT, PLX and Trem2-/- mice; conditions: for maximum brain uptake C max: whole brain TAC
Protocol: Dynamic in vivo PET imaging was carried out in WT mice (n = 8) in order to assess the tracer distribution and brain uptake for [^18F]12 (Figure A). An initial peak of activity and subsequent rapid washout in blood and lungs was observed after tracer injection. The activity then predominantly accumulated in the liver, kidneys, bladder and intestines (Figure B). […] Dynamic in vivo PET imaging was repeated with WT mice (n = 2) under self-block conditions. […] Mouse organs were collected 60 min p.i. after intracardial perfusion to quantify the tracer uptake ex vivo.
To exclude a potential bias in brain PET interpretation caused by varying blood levels, volume-of-distribution (V T) images were computed using an image-derived cardiac input function.
The mice were scanned first with CT (70 kVp/650 μA, exposure time 300 ms, Helical 1.0 pitch). […] PET images of each mouse were coregistered with CT images of the corresponding mouse. A standardized global mean volume of interest (VOI) was used to assess tracer enrichment in the brain and to generate time-activity curves. For liver, bladder and kidney, VOIs were manually drawn as spheres. Data are reported as %ID/g or SUV. For each dynamic PET scan, VT was calculated using the method described by Logan et al., employing a cardiac input function obtained from a standardized VOI. The resulting brain V T image was then analyzed using a standardized global mean VOI. No corrections were made for radiometabolites.

[9] = Ex vivo metabolite analysis by radio-HPLC (plasma, liver, brain); conditions: 60 min p.i.
Protocol: 60 min after tracer administration, mice were transferred to the anesthesia box for isoflurane overdose and euthanized by cervical dislocation. Mouse organs and blood samples were collected, weighed and counted in a γ-counter. Blood samples were obtained by cardiac puncture and transferred to EDTA tubes (Microvette 500 K3E, Sarstedt, Nümbrecht, Germany) to prevent platelet aggregation. Blood samples were centrifuged at 3000g for 5 min to isolate blood plasma. An equal volume of TFA solution (10%) was added to plasma to precipitate remaining plasma proteins. The precipitate was separated by centrifugation at 20,817g for 5 min. […] Brain and liver samples were homogenized (Ika disperser T8.10) in a 1:1 mixture of MeCN and H2O and centrifuged at 3000g for 5 min.

P2Y12 receptor = molecular target: P2Y12 receptor; parameters: method as in not given; conditions: Chinese hamster ovarian cell membranes; reported values from literature; ref not given; cited from earlier work

P2Y12R (Homo sapiens, UniProt Q9H244), sequence (Q9H244 whole entry): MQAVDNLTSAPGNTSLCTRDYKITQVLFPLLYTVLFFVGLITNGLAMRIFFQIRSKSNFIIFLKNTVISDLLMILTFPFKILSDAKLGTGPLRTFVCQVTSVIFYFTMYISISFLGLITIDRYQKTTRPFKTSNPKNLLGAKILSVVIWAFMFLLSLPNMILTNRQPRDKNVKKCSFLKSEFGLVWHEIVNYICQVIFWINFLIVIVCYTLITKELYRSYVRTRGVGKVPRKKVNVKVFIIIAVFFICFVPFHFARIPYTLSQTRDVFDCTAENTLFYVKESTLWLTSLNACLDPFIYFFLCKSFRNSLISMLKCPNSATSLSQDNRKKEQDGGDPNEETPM

N#Cc1cc2c(nc1N1CCC(C(=O)NCc3ccc(F)cc3)CC1)COC2=O [Compound 14, 1-(3-Cyano-5-oxo-5,7-dihydrofuro[3,4-b]-pyridin-2-yl)-N-(4-fluorobenzyl)-piperidine-4-carboxamide]
IC50 (P2Y12R [1]): 199 nM

CCOC(=O)c1ccc(N2CC(C(=O)NCc3ccc(F)cc3)C2)nc1C [Compound 20, Ethyl 6-(3-((4-Fluorobenzyl)-carbamoyl)-azetidin-1-yl)-2-methylnicotinate]
IC50 (P2Y12R [1]): 806 nM

CCOC(=O)c1ccc(N2CCC(C(=O)NCc3ccc(F)cc3)CC2)nc1C [Compound 9, Ethyl 6-(4-((4-Fluorobenzyl)-carbamoyl)-piperidin-1-yl)-2-methylnicotinate]
IC50 (P2Y12R [1]): 762 nM

CCOC(=O)c1cc(C#N)c(N2CCC(C(=O)NCCc3ccc(F)cc3)CC2)nc1C [Compound 18, Ethyl 5-Cyano-6-(4-((4-fluorophenethyl)-carbamoyl)-piperidin-1-yl)-2-methylnicotinate]
IC50 (P2Y12R [1]): 27100 nM

N#Cc1cc2c(nc1N1CCN(C(=O)NCc3ccc(F)cc3)CC1)COC2=O [Compound 8, 4-(3-Cyano-5-oxo-5,7-dihydrofuro[3,4-b]-pyridin-2-yl)-N-(4-fluorobenzyl)-piperazine-1-carboxamide]
IC50 (P2Y12R [1]): 1840 nM and 5710 nM

CCOC(=O)c1cnc(N2CC(C(=O)NCc3ccc(F)cc3)C2)c(Cl)c1 [Compound 21, Ethyl 5-Chloro-6-(3-((4-fluorobenzyl)-carbamoyl)-azetidin-1-yl)-nicotinate]
IC50 (P2Y12R [1]): 566 nM

CCOC(=O)c1cnc(N2CCC(C(=O)NCCc3ccc(F)cc3)CC2)c(Cl)c1 [Compound 16, Ethyl 5-Chloro-6-(4-((4-fluorophenethyl)-carbamoyl)-piperidin-1-yl)-nicotinate]
IC50 (P2Y12R [1]): 661 nM

CCOC(=O)c1cc(C#N)c(N2CCC(C(=O)NCc3ccc([18F])cc3)CC2)nc1C [[^18F]12]
time stable with no decomposition [2]: at least 2 h
logD [3]: 2.67 ± 0.45
correlation R between P2Y12R signal and tracer uptake (P2Y12R [4]; p = 0.0007): 0.754
correlation R between Iba1 signal and tracer uptake (P2Y12R [4]; p = 0.0055): 0.6589
time stable with no decomposition [5]: at least 2 h
cortical signal under blocking with Ticagrelor (P2Y12R [6]; PLX sections, 1 μM ticagrelor, p > 0.05): no reduction was observed
cortical signal under blocking with Ticagrelor (P2Y12R [6]; Trem2-/- sections, 1 μM ticagrelor, p < 0.05): significantly reduced
cortical signal under blocking with Ticagrelor (P2Y12R [6]; WT sections, 1 μM ticagrelor (1000-fold excess), p < 0.001): significantly reduced
signal under blocking with nonradioactive compound 12 (P2Y12R [6]; WT, PLX and Trem2-/- sections, 1 μM 12 (1000-fold excess)): almost complete blocking of the signal
CTX signal normalized to HYP, PLX sections compared to WT and Trem2-/- (P2Y12R [6]; WT: p < 0.005, Trem2-/-: p < 0.001): significant decreased uptake
Heart uptake ([7]; n = 2): 1.30 ± 0.51 %ID/g
Kidney uptake ([7]; n = 2): 5.5 ± 1.1 %ID/g
Liver uptake ([7]; n = 2): 19.6 ± 4.8 %ID/g
Lung uptake ([7]; n = 2): 0.68 ± 0.15 %ID/g
Pancreas uptake ([7]; n = 2): 0.79 ± 0.14 %ID/g
Plasma uptake ([7]; n = 2): 1.58 ± 0.78 %ID/g
Spleen uptake ([7]; n = 2): 0.77 ± 0.19 %ID/g
Kidney uptake ([7]; n = 2, listed as [18F]12): 5.51 ± 1.08 %ID/g
Liver uptake ([7]; n = 2, listed as [18F]12): 19.62 ± 4.75 %ID/g
Blood uptake ([7]; n = 12): 1.2 ± 0.6 %ID/g
Brain uptake ([7]; n = 12): 0.6 ± 0.2 %ID/g
Blood uptake ([7]; n = 12, listed as [18F]12): 1.24 ± 0.56 %ID/g
Brain uptake ([7]; n = 12, listed as [18F]12): 0.61 ± 0.21 %ID/g
higher brain accumulation in WT compared to PLX mice (P2Y12R [8]; 25–60 min p.i., p = 0.0029): 42%
higher brain accumulation in Trem2-/- compared to PLX mice (P2Y12R [8]; 25–60 min p.i., p = 0.0362): 30%
maximum brain uptake C max (P2Y12R [8]; Trem2-/- mice): 1.7 ± 0.5 SUV
brain uptake under self-block conditions (P2Y12R [8]; WT mice n = 2, 200-fold excess of nonradioactive 12 injected 10 min prior): increased brain uptake
C 25min/C 60min (P2Y12R [8]; WT mice, brain TAC plateau phase): ~1.5
time of maximum brain uptake (P2Y12R [8]; WT mice, p.i.): ≤ 2 min
maximum brain uptake C max (P2Y12R [8]; WT mice): 2.5 ± 0.7 SUV
brain V T increase in WT compared to PLX mice (P2Y12R [8]; image-derived cardiac input function, p = 0.002): 16%
brain V T increase in Trem2-/- compared to PLX mice (P2Y12R [8]; image-derived cardiac input function, p = 0.0454): 10%
maximum brain uptake C max (P2Y12R [8]; microglia-depleted (PLX) mice): 2.0 ± 0.5 SUV
fraction of radioactivity in liver ([9]; WT mice, radio-HPLC): 47%
fraction of radioactivity in plasma ([9]; WT mice, radio-HPLC): about 11%
intact tracer in plasma ([9]; WT, PLX and Trem2-/- mice): 7 ± 4%
intact tracer in brain ([9]; all groups): > 99%

CCOC(=O)c1cc(Cl)c(N2CCC(C(=O)NCCc3ccc(F)cc3)CC2)nc1C [Compound 17, Ethyl 5-Chloro-6-(4-((4-fluorophenethyl)-carbamoyl)-piperidin-1-yl)-2-methylnicotinate]
IC50 (P2Y12R [1]): 661 nM and 469 nM

CCCOc1cc(N2CCC(C(=O)NCCc3ccc(F)cc3)CC2)c(Cl)cc1C(=O)OCC [Compound 19, Ethyl 5-Chloro-4-(4-((4-fluorophenethyl)-carbamoyl)-piperidin-1-yl)-2-propoxybenzoate]
IC50 (P2Y12R [1]): 27100 nM and 3670 nM

CCOC(=O)c1cc(C#N)c(N2CCN(C(=O)NCc3ccc(F)cc3)CC2)nc1C [Compound 7, Ethyl 5-Cyano-6-(4-((4-fluorobenzyl)-carbamoyl)-piperazin-1-yl)-2-methylnicotinate]
IC50 (P2Y12R [1]): 1840 nM

CCOC(=O)c1cc(C#N)c(N2CCC(C(=O)NS(=O)(=O)Cc3ccccc3)CC2)nc1C [Compound 5, Ethyl 6-(4-((Benzylsulfonyl)-carbamoyl)-piperidin-1-yl)-5-cyano-2-methylnicotinate, reference compound]
IC50 (P2Y12 receptor): 11 nM

CCOC(=O)c1ccc(N2CCC(C(=O)NCCc3ccc(F)cc3)CC2)nc1C [Compound 15, Ethyl 6-(4-((4-Fluorophenethyl)-carbamoyl)-piperidin-1-yl)-2-methylnicotinate]
IC50 (P2Y12R [1]): 1260 nM
